From ChEMBL document CHEMBL1146889, “Homo-cysteinyl peptide inhibitors of the L1 metallo-beta-lactamase, and SAR as determined by combinatorial library synthesis” (Bioorg Med Chem Lett, 2006)

What was measured:
Beta-lactamase L1 = Beta-lactamase L1 (Stenotrophomonas maltophilia, UniProt P52700); assay: Inhibition of Stenotrophomonas maltophilia L1 metallo beta lactamase
[1] = biological target: Beta-lactamase L1 (Stenotrophomonas maltophilia) (UniProt P52700); assay: Inhibition of Stenotrophomonas maltophilia L1 metallo beta lactamase at 200 uM
Chain of Beta-lactamase L1 (Stenotrophomonas maltophilia) (P52700 34-290 limits assumed): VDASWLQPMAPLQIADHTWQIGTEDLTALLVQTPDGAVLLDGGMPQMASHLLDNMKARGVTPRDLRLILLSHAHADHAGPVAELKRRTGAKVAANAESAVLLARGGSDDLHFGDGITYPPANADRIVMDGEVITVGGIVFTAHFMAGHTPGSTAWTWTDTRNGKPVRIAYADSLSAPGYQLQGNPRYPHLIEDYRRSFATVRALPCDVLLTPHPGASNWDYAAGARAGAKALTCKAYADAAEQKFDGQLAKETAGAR

Chain of Beta-lactamase L1 (P52700 whole entry): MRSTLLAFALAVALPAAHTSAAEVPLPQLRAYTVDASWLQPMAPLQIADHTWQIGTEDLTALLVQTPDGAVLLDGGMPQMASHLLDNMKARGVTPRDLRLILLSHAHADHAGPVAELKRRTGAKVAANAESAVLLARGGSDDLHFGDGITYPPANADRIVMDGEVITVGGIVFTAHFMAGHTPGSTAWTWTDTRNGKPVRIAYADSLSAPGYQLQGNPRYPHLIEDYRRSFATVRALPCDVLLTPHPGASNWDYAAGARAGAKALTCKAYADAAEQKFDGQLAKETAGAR

Ki (Beta-lactamase L1) [nM]	inhibition [1] [%]	SMILES
780	81	O=C(Cc1cc([N+](=O)[O-])ccc1Cl)NC(CCS)C(=O)N[C@H](Cc1ccccc1)C(=O)O (stereo partly specified)
200	81	O=C(NC(CCS)C(=O)N[C@H](Cc1ccccc1)C(=O)O)c1cc2cc(Cl)ccc2[nH]1 (stereo partly specified)
1030	81	O=C(Cc1cccc([N+](=O)[O-])c1)NC(CCS)C(=O)N[C@H](Cc1ccccc1)C(=O)O (stereo partly specified)
570	81	O=C(NC(CCS)C(=O)N[C@H](Cc1ccccc1)C(=O)O)c1cc2cc(O)ccc2[nH]1 (stereo partly specified)
520	81	C[Si](C)(C)CCC(=O)NC(CCS)C(=O)N[C@H](Cc1ccccc1)C(=O)O (stereo partly specified)
12	81	O=C(NC(CCS)C(=O)N[C@H](Cc1ccccc1)C(=O)O)c1cc2cc(F)ccc2[nH]1 (stereo partly specified)
150	81	O=C(NC(CCS)C(=O)N[C@H](Cc1ccccc1)C(=O)O)c1cc2cccc([N+](=O)[O-])c2[nH]1 (stereo partly specified)
290	81	O=C(COc1cccc2ccccc12)NC(CCS)C(=O)N[C@H](Cc1ccccc1)C(=O)O (stereo partly specified)
